Assay: Compound was tested for inhibition of partially purified squalene epoxidase

SMILES	IC50
CCN(CC=CC#CC(C)(C)C)Cc1cccc(OCc2cc(CO)cc(C3(C(F)(F)F)N=N3)c2)c1 [[3-(3-{[((E)-6,6-Dimethyl-hept-2-en-4-ynyl)-ethyl-amino]-methyl}-phenoxymethyl)-5-(3-trifluoromethyl-3H-diazirin-3-yl)-phenyl]-methanol]	500 µM
CCN(Cc1cccc(OCc2cc(-c3cccs3)cs2)c1)c1ccc(C(=O)c2ccc(CCl)cc2)cc1 [(4-{[3-([2,3']Bithiophenyl-5'-ylmethoxy)-benzyl]-ethyl-amino}-phenyl)-(4-chloromethyl-phenyl)-methanone]	500 µM
CCN(Cc1cccc(OCc2cc(-c3cccs3)cs2)c1)c1cc(O)cc(C2(C(F)(F)F)N=N2)c1 [3-{[3-([2,3']Bithiophenyl-5'-ylmethoxy)-benzyl]-ethyl-amino}-5-(3-trifluoromethyl-3H-diazirin-3-yl)-phenol]	500 µM

Source: BindingDB's records for doi:10.1016/S0960-894X(00)80067-0 (1994)
